Test [1] concerns the target Tyrosine-protein kinase BTK (Homo sapiens) (UniProt Q06187). Briefly: Inhibition of human BTK assessed as residual activity at 0.1 uM relative to control.
Test [2] addresses T1, Serine/threonine-protein kinase Sgk1 (Homo sapiens) (UniProt O00141).
T1 sequence (whole entry): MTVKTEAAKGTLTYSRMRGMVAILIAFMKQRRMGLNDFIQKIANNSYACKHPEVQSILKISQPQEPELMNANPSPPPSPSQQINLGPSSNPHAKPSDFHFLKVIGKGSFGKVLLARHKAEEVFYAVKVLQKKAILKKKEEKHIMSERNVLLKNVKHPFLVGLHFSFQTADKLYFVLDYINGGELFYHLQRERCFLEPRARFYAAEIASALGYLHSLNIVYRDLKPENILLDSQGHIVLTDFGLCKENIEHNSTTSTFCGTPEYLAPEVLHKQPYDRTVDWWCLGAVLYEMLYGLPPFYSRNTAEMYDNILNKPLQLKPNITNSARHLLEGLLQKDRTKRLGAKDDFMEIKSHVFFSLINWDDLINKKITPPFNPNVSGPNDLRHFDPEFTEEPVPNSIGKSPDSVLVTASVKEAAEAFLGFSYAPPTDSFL
Briefly: Inhibition of human SGK1 assessed as residual activity at 1 uM relative to control.

Test [3] concerns the target Tyrosine-protein kinase JAK2 (Homo sapiens) (UniProt O60674). The experiment in a line: Inhibition of human JAK2 assessed as residual activity at 1 uM relative to control.
Test [4] deals with High affinity nerve growth factor receptor (Homo sapiens, UniProt P04629). Briefly: Inhibition of human TRKA assessed as residual activity at 0.1 uM relative to control.
The target of test [5] is Serine/threonine-protein kinase Chk2 (Homo sapiens) (UniProt O96017). Briefly: Inhibition of human CHK2 assessed as residual activity at 1 uM relative to control.
The target in test [6] is SRSF protein kinase 1 (Homo sapiens) (UniProt Q96SB4). The experiment in a line: Inhibition of human SRPK1 assessed as residual activity at 1 uM relative to control.
Test [7] has as its target Proto-oncogene tyrosine-protein kinase Src (Homo sapiens) (UniProt P12931). The experiment in a line: Inhibition of human GST-HIS-tagged SRC assessed as residual activity at 0.1 uM relative to control.
Test [8] shares this target. The experiment in a line: Inhibition of human GST-HIS-tagged SRC assessed as residual activity at 1 uM relative to control.
For test [9], the target named is Calcium/calmodulin-dependent protein kinase kinase 2 (Homo sapiens) (UniProt Q96RR4). The experiment in a line: Inhibition of human CAMKK2 assessed as residual activity at 0.1 uM relative to control.
In test [10] the target is Serine/threonine-protein kinase PAK 4 (Homo sapiens) (UniProt O96013). Briefly: Inhibition of human PAK4 assessed as residual activity at 0.1 uM relative to control.
For test [11], the target named is 5'-AMP-activated protein kinase catalytic subunit alpha-1 (Homo sapiens) (UniProt Q13131). The experiment in a line: Inhibition of human AMPKalpha1 (1 to 550 residues assessed as residual activity at 0.1 uM relative to control.
Chain of 5'-AMP-activated protein kinase catalytic subunit alpha-1 (Homo sapiens) (Q13131 whole entry, looked up, the tested form may be a part): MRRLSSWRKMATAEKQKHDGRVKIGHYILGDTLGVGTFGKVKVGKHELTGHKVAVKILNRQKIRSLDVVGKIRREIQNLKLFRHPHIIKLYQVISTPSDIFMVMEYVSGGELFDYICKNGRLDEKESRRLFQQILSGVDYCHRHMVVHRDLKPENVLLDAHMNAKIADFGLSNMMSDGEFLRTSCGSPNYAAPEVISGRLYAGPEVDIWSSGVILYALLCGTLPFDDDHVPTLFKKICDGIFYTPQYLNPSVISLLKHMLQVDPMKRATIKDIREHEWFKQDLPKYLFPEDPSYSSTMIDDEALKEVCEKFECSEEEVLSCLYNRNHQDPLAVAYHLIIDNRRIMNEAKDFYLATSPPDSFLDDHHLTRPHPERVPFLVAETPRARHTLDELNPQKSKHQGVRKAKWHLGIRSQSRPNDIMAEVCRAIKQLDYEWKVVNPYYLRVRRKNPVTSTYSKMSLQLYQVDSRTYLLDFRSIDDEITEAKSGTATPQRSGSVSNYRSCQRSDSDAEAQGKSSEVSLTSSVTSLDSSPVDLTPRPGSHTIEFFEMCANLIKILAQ
The target in test [12] is T2, Serine/threonine-protein kinase 3 (Homo sapiens) (UniProt Q13188).
T2 sequence (whole entry): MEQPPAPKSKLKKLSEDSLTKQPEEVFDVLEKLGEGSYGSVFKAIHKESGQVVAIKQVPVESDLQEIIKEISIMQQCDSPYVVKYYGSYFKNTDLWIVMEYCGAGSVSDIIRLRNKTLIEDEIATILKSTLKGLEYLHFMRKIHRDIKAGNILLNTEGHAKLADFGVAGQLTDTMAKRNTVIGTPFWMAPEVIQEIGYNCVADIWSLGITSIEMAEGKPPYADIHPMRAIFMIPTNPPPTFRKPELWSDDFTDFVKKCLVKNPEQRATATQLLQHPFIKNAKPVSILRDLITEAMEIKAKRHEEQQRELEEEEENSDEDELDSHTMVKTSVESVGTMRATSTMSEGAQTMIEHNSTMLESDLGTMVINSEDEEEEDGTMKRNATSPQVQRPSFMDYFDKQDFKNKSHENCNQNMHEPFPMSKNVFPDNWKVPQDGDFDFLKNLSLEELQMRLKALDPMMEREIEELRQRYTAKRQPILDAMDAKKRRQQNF
Briefly: Inhibition of human MST2 assessed as residual activity at 1 uM relative to control.

Test [13] addresses Receptor-interacting serine/threonine-protein kinase 2 (Homo sapiens) (UniProt O43353). Briefly: Inhibition of human RIPK2 assessed as residual activity at 1 uM relative to control.
Test [14] has as its target 3-phosphoinositide-dependent protein kinase 1 (Homo sapiens) (UniProt O15530). Briefly: Inhibition of human PDK1 assessed as residual activity at 0.1 uM relative to control.
The target in test [15] is Casein kinase I isoform delta (Homo sapiens) (UniProt P48730). The experiment in a line: Inhibition of human CK1-delta assessed as residual activity at 0.1 uM relative to control.
Test [16] deals with RAC-alpha serine/threonine-protein kinase (Homo sapiens) (UniProt P31749). The experiment in a line: Inhibition of human AKT1 (104 to 408 residues) assessed as residual activity at 1 uM relative to control.
Chain of RAC-alpha serine/threonine-protein kinase (Homo sapiens) (P31749 whole entry, the tested form may be a part): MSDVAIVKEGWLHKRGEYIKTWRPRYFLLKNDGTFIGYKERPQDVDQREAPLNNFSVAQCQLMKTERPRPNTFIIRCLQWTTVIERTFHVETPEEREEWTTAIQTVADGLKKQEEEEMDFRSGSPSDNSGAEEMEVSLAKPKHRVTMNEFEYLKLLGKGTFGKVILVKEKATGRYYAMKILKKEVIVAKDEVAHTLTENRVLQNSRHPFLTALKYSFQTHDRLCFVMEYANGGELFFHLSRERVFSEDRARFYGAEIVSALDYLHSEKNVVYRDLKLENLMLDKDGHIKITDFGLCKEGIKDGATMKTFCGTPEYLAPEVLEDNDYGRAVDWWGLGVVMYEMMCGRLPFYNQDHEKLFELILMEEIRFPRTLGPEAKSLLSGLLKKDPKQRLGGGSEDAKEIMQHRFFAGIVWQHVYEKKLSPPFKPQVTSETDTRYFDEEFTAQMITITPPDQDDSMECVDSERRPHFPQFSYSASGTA
The target in test [17] is Myosin light chain kinase, smooth muscle (Homo sapiens) (UniProt Q15746). Briefly: Inhibition of human MYLK assessed as residual activity at 1 uM relative to control.
Test [18] addresses 3-phosphoinositide-dependent protein kinase 1 (Homo sapiens) (UniProt O15530). The experiment in a line: Inhibition of human PDK1 assessed as residual activity at 1 uM relative to control.
Test [19] concerns the target Ribosomal protein S6 kinase alpha-5 (Homo sapiens) (UniProt O75582). Briefly: Inhibition of human RPS6KA5 assessed as residual activity at 1 uM relative to control.
Test [20] concerns the target MAP/microtubule affinity-regulating kinase 3 (Homo sapiens) (UniProt P27448). Briefly: Inhibition of human MARK3 assessed as residual activity at 1 uM relative to control.
The species named for another test is Homo sapiens. The experiment in a line: Inhibition of human PKA assessed as residual activity at 1 uM relative to control.
Test [21] addresses Dual specificity mitogen-activated protein kinase kinase 1 (Homo sapiens) (UniProt Q02750). Briefly: Inhibition of human wild type MEK1 assessed as residual activity at 1 uM relative to control.
The target of test [22] is Tyrosine-protein kinase Lck (Homo sapiens) (UniProt P06239). The experiment in a line: Inhibition of human LCK assessed as residual activity at 1 uM relative to control.
Chain of Tyrosine-protein kinase Lck (Homo sapiens) (P06239 2-509 limits assumed): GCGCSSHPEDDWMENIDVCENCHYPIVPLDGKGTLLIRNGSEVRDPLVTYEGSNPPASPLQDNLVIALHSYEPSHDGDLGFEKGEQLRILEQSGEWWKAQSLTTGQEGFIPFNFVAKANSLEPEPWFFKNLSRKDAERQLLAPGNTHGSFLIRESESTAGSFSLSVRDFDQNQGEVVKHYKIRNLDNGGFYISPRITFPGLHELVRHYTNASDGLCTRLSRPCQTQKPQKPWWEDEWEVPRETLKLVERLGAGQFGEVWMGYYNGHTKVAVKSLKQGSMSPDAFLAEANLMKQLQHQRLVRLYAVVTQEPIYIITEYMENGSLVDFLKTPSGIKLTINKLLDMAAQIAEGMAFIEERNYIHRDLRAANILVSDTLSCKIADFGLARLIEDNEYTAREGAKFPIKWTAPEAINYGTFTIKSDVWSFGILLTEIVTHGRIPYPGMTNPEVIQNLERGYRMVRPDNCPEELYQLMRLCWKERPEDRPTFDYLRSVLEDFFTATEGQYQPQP

The structures appear in SMILES notation.

Chain of Receptor-interacting serine/threonine-protein kinase 2 (Homo sapiens) (O43353 whole entry): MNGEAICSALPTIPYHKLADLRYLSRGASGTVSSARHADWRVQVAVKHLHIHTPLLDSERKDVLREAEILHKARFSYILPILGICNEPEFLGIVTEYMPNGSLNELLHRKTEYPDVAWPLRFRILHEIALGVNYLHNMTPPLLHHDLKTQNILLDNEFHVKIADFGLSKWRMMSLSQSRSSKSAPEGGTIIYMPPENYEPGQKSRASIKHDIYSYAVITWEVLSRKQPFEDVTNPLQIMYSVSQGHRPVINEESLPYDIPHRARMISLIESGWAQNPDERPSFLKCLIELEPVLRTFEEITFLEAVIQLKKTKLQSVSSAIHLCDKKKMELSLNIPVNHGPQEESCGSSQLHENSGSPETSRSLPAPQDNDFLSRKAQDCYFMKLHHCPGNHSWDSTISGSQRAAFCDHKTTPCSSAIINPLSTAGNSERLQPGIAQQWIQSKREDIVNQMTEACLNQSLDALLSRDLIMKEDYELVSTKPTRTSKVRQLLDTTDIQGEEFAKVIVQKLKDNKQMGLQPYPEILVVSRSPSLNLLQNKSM
Chain of Tyrosine-protein kinase JAK2 (Homo sapiens) (O60674 whole entry): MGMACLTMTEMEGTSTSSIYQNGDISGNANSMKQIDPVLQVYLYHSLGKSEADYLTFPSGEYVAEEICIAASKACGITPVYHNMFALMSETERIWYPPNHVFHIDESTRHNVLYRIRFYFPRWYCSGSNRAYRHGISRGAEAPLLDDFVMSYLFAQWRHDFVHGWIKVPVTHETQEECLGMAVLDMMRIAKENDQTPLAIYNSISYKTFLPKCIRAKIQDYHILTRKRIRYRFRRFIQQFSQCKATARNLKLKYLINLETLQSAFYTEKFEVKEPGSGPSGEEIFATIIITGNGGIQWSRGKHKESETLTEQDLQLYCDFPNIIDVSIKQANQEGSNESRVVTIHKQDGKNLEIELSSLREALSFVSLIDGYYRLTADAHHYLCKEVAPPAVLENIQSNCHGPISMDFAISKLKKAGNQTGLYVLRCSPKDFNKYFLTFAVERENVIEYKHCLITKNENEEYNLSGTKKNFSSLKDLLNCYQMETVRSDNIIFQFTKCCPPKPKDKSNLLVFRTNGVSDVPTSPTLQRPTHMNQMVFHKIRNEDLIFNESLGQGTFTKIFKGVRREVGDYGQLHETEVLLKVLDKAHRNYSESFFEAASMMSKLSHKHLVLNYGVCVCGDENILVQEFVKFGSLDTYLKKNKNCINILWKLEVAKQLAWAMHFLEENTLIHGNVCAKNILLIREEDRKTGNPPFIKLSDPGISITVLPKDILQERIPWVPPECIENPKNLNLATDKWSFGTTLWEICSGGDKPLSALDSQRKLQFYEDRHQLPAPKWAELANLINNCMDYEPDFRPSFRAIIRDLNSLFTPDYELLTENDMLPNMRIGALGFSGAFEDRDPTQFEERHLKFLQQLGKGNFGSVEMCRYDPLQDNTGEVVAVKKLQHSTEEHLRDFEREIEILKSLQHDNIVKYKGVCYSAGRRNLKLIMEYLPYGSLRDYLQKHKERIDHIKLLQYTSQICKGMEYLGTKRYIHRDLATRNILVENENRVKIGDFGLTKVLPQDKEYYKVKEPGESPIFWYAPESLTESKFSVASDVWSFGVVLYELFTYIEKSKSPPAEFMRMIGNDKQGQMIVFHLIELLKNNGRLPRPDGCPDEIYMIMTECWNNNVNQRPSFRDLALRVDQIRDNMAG
Chain of MAP/microtubule affinity-regulating kinase 3 (Homo sapiens) (P27448 whole entry, looked up): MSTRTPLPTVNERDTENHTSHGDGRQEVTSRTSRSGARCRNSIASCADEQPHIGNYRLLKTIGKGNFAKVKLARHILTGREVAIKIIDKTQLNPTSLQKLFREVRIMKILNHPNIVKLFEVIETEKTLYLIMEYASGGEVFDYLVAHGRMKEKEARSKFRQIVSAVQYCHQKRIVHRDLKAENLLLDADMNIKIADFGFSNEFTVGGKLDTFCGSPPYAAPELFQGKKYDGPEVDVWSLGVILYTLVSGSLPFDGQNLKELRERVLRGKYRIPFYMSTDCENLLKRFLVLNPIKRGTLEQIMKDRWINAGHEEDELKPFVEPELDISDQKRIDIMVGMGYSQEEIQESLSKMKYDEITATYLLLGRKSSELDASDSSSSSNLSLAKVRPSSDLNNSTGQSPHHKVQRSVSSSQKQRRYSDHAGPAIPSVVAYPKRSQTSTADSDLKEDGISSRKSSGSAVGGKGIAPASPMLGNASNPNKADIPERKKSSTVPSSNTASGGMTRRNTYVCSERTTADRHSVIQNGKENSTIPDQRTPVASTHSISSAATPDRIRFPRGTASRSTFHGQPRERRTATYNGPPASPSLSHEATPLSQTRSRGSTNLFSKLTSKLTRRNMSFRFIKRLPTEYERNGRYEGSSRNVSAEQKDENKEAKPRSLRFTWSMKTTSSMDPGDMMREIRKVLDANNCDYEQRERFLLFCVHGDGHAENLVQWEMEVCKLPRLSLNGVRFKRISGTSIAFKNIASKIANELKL
Chain of Tyrosine-protein kinase BTK (Homo sapiens) (Q06187 whole entry): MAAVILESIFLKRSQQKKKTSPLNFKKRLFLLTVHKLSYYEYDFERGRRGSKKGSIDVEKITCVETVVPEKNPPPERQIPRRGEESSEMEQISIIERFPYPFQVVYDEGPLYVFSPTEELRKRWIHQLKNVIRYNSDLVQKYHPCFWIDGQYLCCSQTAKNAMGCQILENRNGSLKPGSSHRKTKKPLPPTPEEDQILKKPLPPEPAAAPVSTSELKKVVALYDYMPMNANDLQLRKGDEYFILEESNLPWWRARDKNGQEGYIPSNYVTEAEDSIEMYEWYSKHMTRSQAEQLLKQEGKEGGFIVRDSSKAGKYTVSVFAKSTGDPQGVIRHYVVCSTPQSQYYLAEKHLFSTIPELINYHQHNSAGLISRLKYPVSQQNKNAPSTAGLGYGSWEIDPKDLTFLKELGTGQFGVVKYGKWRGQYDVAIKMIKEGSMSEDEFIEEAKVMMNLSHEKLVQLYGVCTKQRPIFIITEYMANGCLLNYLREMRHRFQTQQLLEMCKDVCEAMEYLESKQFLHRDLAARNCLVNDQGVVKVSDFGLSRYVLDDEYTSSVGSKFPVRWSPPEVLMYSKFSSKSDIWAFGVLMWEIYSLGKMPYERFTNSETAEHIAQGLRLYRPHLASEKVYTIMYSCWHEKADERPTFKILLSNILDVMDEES
Chain of Dual specificity mitogen-activated protein kinase kinase 1 (Homo sapiens) (Q02750 whole entry): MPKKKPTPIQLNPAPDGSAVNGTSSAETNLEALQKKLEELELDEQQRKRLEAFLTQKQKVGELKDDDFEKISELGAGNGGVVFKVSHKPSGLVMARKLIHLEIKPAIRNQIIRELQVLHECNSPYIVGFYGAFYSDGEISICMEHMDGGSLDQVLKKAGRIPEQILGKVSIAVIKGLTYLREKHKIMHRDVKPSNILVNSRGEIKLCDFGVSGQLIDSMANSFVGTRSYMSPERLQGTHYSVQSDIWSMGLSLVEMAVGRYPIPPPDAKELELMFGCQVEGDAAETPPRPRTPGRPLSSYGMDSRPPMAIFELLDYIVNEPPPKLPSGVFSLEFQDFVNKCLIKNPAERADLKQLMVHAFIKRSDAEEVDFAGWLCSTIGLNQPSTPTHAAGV

`CNS(=O)(=O)c1ccc2c(c1)/C(=C/c1cn(C)c3ccc(OC)cc13)C(=O)N2`: the Activity came to 97% in test [1]; 81% in test [2]; 87% in [3]; 4% in [4]; 75% in test [5]; 101% in [6]. Further, the Activity was 92% in [7]; 73% in test [8]; 56% in [9]; 84% in [10]; 104% in [11]; 77% in [12]. Moreover, the Activity in test [13] worked out at 100%; in [14], 92%; in test [15], 89%; in test [16] it was 98%; in [17], 90%; in [18], 123%. Also, the Activity in test [19] turned out to be 88%; in test [20] it was 87%; in the test listed under Homo sapiens, 83%; in [21], 93%; in [22] it was 41%.

With `CN(C)S(=O)(=O)c1ccc2c(c1)/C(=C/c1cn(C)c3ccc(O)cc13)C(=O)N2`, the Activity stood at 95% in test [1]; 81% in test [2]; 55% in test [3]; 10% in [4]; 92% in test [5]; 94% in test [6]. The Activity in [7] is 79%; in test [8], 68%; in test [9], 73%; in [10], 95%; in test [11], 103%; in [12], 83%. The Activity in test [13] is 89%; in test [14], 94%; in test [15], 88%; in [16], 105%; in test [17], 84%; in test [18], 83%. Further, the Activity in test [19] is 107%; in test [20], 96%; in the test listed under Homo sapiens it was 103%; in [21] it was 98%; in [22], 33%.

For the compound `COc1ccc2[nH]cc(/C=C3\C(=O)Nc4ccc(S(N)(=O)=O)cc43)c2c1`, the Activity in test [1] was 100%; in test [2], 49%; in test [3] it was 67%; in test [4], 6%; in test [5], 12%; in test [6], 93%. Also, the Activity was 107% in test [7]; 74% in [8]; 83% in test [9]; 93% in [10]; 101% in [11]; 64% in test [12]. The Activity in test [13] was 48%; in [14] it was 98%; in [15], 92%; in [16] it was 101%; in [17] it was 83%; in test [18] it was 66%. The Activity in test [19] came to 95%; in test [20], 93%; in the test listed under Homo sapiens it was 84%; in [21], 72%; in test [22], 61%.

`COc1ccc2c(c1)c(/C=C1\C(=O)Nc3ccc(S(=O)(=O)N(C)C)cc31)cn2C`: the Activity in [1] stood at 89%; in test [2], 80%; in test [3], 72%; in test [4], 18%; in test [5], 99%; in test [6], 95%. Moreover, the Activity in test [7] worked out at 93%; in test [8], 70%; in [9], 76%; in [10] it was 96%; in test [11], 98%; in [12], 104%. The Activity in [13] worked out at 95%; in test [14] it was 99%; in test [15], 89%; in [16], 93%; in [17], 91%; in [18] it was 84%. Besides, the Activity was found to be 108% in test [19]; 97% in test [20]; 98% in the test filed under Homo sapiens; 97% in test [21]; 64% in test [22].

Turning to `COc1ccc2c(c1)c(/C=C1\C(=O)Nc3ccc(S(N)(=O)=O)cc31)cn2C`, the Activity in test [1] was determined as 117%; in [2], 75%; in test [3], 86%; in [4] it was 3%; in test [5], 39%; in test [6], 99%. The Activity is 113% in test [7]; 91% in [8]; 53% in [9]; 77% in test [10]; 94% in test [11]; 84% in test [12]. Besides, the Activity is 97% in [13]; 93% in test [14]; 87% in [15]; 96% in test [16]; 90% in test [17]; 75% in test [18]. Besides, the Activity in test [19] stood at 95%; in test [20], 90%; in the test listed under Homo sapiens it was 91%; in test [21], 71%; in test [22] it was 32%.

In the case of `Cn1cc(/C=C2\C(=O)Nc3ccc(S(N)(=O)=O)cc32)c2ccccc21`, the Activity in test [1] worked out at 111%; in test [2], 55%; in [3] it was 67%; in test [4] it was 3%; in [5], 5%; in test [6], 101%. The Activity was determined as 124% in test [7]; 108% in [8]; 62% in test [9]; 74% in test [10]; 83% in test [11]; 62% in test [12]. Moreover, the Activity in test [13] is 84%; in test [14], 90%; in test [15], 88%; in test [16], 97%; in test [17] it was 90%; in test [18], 70%. For the same compound, the Activity turned out to be 93% in test [19]; 88% in test [20]; 87% in the test filed under Homo sapiens; 59% in test [21]; 50% in test [22].

The values above are taken from ChEMBL document CHEMBL4765228, “Indole-like Trk receptor antagonists” (Eur J Med Chem, 2016).
